The source of these data is patent US20100120769A1, “CYCLOHEXYL PIPERAZINYL METHANONE DERIVATIVES” (priority 2006, published 2010).

T1 sequence (Q9Y5N1 whole entry): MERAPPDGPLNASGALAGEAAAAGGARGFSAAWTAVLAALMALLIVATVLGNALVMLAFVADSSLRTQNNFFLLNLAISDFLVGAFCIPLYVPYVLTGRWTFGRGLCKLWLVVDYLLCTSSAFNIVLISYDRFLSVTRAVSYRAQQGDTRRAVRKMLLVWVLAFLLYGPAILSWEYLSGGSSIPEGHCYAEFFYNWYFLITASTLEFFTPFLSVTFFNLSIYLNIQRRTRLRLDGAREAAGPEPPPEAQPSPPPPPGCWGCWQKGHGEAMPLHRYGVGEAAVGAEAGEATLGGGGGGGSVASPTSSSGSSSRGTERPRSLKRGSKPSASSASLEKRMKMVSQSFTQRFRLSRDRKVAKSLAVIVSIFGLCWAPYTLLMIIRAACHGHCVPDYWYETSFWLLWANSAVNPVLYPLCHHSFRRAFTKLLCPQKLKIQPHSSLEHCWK

This assay has as its target T1, histamine 3 receptor (H3R) (Homo sapiens, UniProt Q9Y5N1).
T1 construct: expressed in transfected cells; host or cells: CHO cells (HR3-CHO)
Briefly: Binding assay with 3H-(R)α-methylhistamine (competition binding, HR3-CHO membranes). Particulars: membrane of the human HR3-CHO cell line, 3H(R)α-Methylhistamine 1 nM; Ki calculated from IC50 by Cheng-Prusoff. The protocol: Binding Assay with ^3H-(R)α-methylhistamine
Saturation binding experiments were performed using HR3-CHO membranes prepared as described in Takahashi, K, Tokita, S., Kotani, H. (2003) J. Pharmacol. Exp. Therapeutics 307, 213-218.
An appropriate amount of membrane (60 to 80 μg protein/well) was incubated with increasing concentrations of ^3H(R)α-Methylhistamine di-hydrochloride (0.10 to 10 nM). Non specific binding was determined using a 200 fold excess of cold (R)α-Methylhistamine dihydrobromide (500 nM final concentration). The incubation was carried out at room temperature (in deep-well plates shaking for three hours). The final volume in each well was 250 μl. The incubation was followed by rapid filtration on GF/B filters (pre-soaked with 100 μl of 0.5% PEI in Tris 50 mM shaking at 200 rpm for two hours). The filtration was made using a cell-harvester and the filter plates were then washed five times with ice cold washing buffer containing 0.5 M NaCl. After harvesting, the plates were dried at 55° C. for 60 min, then we added scintillation fluid (Microscint 40, 40 microl in each well) and the amount of radioactivity on the filter was determined in Packard top-counter after shaking the plates for two hours at 200 rpm at room temperature.
Binding Buffer: 50 mM Tris-HCl pH 7.4 and 5 mM MgCl2x6H2O pH 7.4. Washing Buffer: 50 mM Tris-HCl pH 7.4 and 5 mM MgCl2x6H2O and 0.5 M NaCl pH 7.4.
Indirect measurement of affinity of H3R inverse agonists: twelve increasing concentrations (ranging from 10 μM to 0.3 nM) of the selected compounds were always tested in competition binding experiments using membrane of the human HR3-CHO cell line. An appropriate amount of protein, e.g. approximately 500 cpm binding of RAMH at Kd, were incubated for 1 hour at room temperature in 250 μl final volume in 96-well plates in presence of ^3H(R)α-Methylhistamine (1 nM final concentration=Kd). […]
All compounds were tested at a single concentration in duplicates. […] Ki's were calculated from IC50 based on Cheng-Prusoff equation (Cheng, Y, Prusoff, W H (1973) Biochem Pharmacol 22, 3099-3108).
Broadly, the Ki is a measure of affinity in units of concentration, obtained from inhibition or displacement. As to `CC(C)N1CCN(C(=O)[C@H]2CC[C@H](NC(=O)N(C)c3cccc(F)c3)CC2)CC1` [Example 32, 1-(3-fluoro-phenyl)-3-[trans-4-(4-isopropyl-piperazine-1-carbonyl)-cyclohexyl]-1-methyl-urea], the Ki is 38.4 nM.

Turning to `CC(C)N1CCN(C(=O)[C@H]2CC[C@H](NC(=O)c3ccc(Cl)cc3Cl)CC2)CC1` [Example 13, 2,4-dichloro-N-[trans-4-(4-isopropyl-piperazine-1-carbonyl)-cyclohexyl]-benzamide], the Ki was 88.1 nM.

Take `Cc1ccc(NC2CCC(C(=O)N3CCN(C(C)C)CC3)CC2)cc1` (stereo not drawn) [Example 1, (4-Isopropyl-piperazin-1-yl)-(4-p-tolylamino-cyclohexyl)-methanone]: the Ki was 52.8 nM.
